Where a name gives a salt, the structure may show the parent alone.
Assays:
platelet coagulation [1] = assay: Inhibitory activities of test compounds against platelet coagulation in vitro (ADP-induced, rat platelet-rich plasma, aggregometer); format: cell-based; conditions: 10 μg/ml test substance in rat PRP, maximum rate of platelet coagulation over 5 min; for inhibition at 10 µg/mL: 5 min, read-out: Test Example 1 (% inhibition)
Experimental: Confirmation of Inhibitory Activities of Test Compounds Against Platelet Coagulation In Vitro
Three to four male Sprague-Dawley rats (8 weeks of age, Japan SLC., Inc.) per group were used in the present test. Platelet coagulation was determined by platelet aggregometer (MCM Hema Tracer 313M, MC Medical, Inc.) according to modified methods described by Born et al. (Journal of Physiology, vol. 168, 178 (1963)). Blood (6.3 ml) was collected from abdominal aorta of rats anesthetized with pentobarbital sodium (40 mg/kg) with a microsyringe containing 0.7 ml of sodium citrate at a concentration of 3.8% as anti-coagulant. The obtained blood containing sodium citrate was centrifuged (230×g for 15 min at room temperature) and plate-rich plasma (hereinafter referred to as PRP) fraction was isolated. Furthermore, after PRP was isolated, the blood was further centrifuged (2,000×g for 10 min at room temperature) and platelet-poor plasma (hereinafter referred to as PPP) fraction was isolated. Platelet count in PRP was determined by automated hematology analyzer (KX-21N, SYSMEX CORPORATION) and adjusted as 5×10^8/ml. After PRP (239 μl) was put into each cuvette, the test substance dissolved in dimethyl sulfoxide (DMSO, 1 μl) was added to the PRP solution and assessed by automated hematology analyzer. In the control group, DMSO solution (1 μl) instead of the test substance solution was added to the PRP solution. After warming at 37° C. for 1.5 min, 10 μl of adenosine-5′-diphosphate (ADP) solution (final concentration: […]) was added, and platelet coagulation was induced. Platelet coagulation was determined for 5 min and the maximum rate of plate coagulation determined.

platelet coagulation [2] = assay: Inhibitory activities of test compounds against platelet coagulation ex vivo (oral administration to rats 4 hrs prior to blood collection, ADP-induced, PRP); format: in vivo, rat; conditions: for inhibition at 10 µg/mL: Rattus norvegicus, Platelet, po, 4 h, read-out: Test Example 2 (% inhibition); for Test Example 2 (% inhibition): head prints (10 μg/ml), orally administered to rats 4 hrs prior to blood collection, ADP-induced coagulation in PRP
Experimental: Three to four male Sprague-Dawley rats (8 weeks of age, Japan SLC., Inc.) per group were used in the present test. […] In the control group, the vehicle was similarly and orally administered at the rate of 1 mL/kg 4 hrs prior to the blood collection. […] The obtained blood containing sodium citrate was centrifuged (230×g for 15 min at room temperature) and PRP fraction was isolated. Furthermore, after PRP was isolated, the blood was further centrifuged (2,000×g for 10 min at room temperature) and PPP fraction was isolated. Platelet count in PRP was determined by automated hematology analyzer (KX-21N, SYSMEX CORPORATION) and adjusted as 5×10^8/ml. After PRP (240 μl) was put into each cuvette, the platelet coagulation was assessed by automated hematology analyzer. After warming at 37° C. for 1.5 min, 10 μl of ADP solution (final concentration: […]) was added, and platelet coagulation was induced. Platelet coagulation was determined for 5 min and the maximum rate of plate coagulation determined.

Structure (SMILES) | inhibition at 10 µg/mL (platelet coagulation [1]) | inhibition at 10 µg/mL (platelet coagulation [2]) | Test Example 1 (% inhibition) (platelet coagulation [1]) | Test Example 2 (% inhibition) (platelet coagulation [2])
O=C(O)Cn1ccc(/C=C2\CN(C(C(=O)C3CC3)c3ccccc3F)CCC2S)n1 (stereo not drawn) [Example 77, (E)-3-{[1-(Carboxymethyl)-1H-pyrazol-3-yl]methylidene}-1-[2-cyclopropyl-1-(2-fluorophenyl)-2-oxoethyl]-4-sulfanylpiperidine hydrochloride] | 76% | 77% | – | –
O=C(O)CCCCn1ccc(/C=C2\CN(C(C(=O)C3CC3)c3ccccc3F)CCC2S)n1 (stereo not drawn) [Example 121, (E)-3-{[1-(4-Carboxybutyl)-1H-pyrazol-3-yl]methylidene}-1-[2-cyclopropyl-1-(2-fluorophenyl)-2-oxoethyl]-4-sulfanylpiperidine hydrochloride] | 55% | 72% | – | –
O=C(O)CCn1nncc1/C=C1\CN(C(C(=O)C2CC2)c2ccccc2F)CCC1S (stereo not drawn) [Example 134, (E)-3-{[1-(2-Carboxyethyl)-1H-1,2,3-triazol-5-yl]methylidene}-1-[2-cyclopropyl-1-(2-fluorophenyl)-2-oxoethyl]-4-sulfanylpiperidine hydrochloride] | 85% | – | – | –
CC(=O)SC1CCN(C(C(=O)C2CC2)c2ccccc2F)C/C1=C\c1ccn(CCC(=O)O)n1 (stereo not drawn) [Example 114, (E)-4-(Acetylsulfanyl)-3-{[1-(2-carboxyethyl)-1H-pyrazol-3-yl]methylidene}-1-[2-cyclopropyl-1-(2-fluorophenyl)-2-oxoethyl]piperidine hydrochloride] | – | 81% | – | –
O=C(O)CCCn1ccc(/C=C2\CN(C(C(=O)C3CC3)c3ccccc3F)CCC2S)n1 (stereo not drawn) [Example 117, (E)-3-{[1-(3-Carboxypropyl)-1H-pyrazol-3-yl]methylidene}-1-[2-cyclopropyl-1-(2-fluorophenyl)-2-oxoethyl]-4-sulfanylpiperidine hydrochloride] | 70% | 63% | – | –
O=C(O)CCn1nnnc1/C=C1\CN(C(C(=O)C2CC2)c2ccccc2F)CCC1S (stereo not drawn) [Example 258, (E)-3-{[1-(2-Carboxyethyl)-1H-tetrazol-5-yl]methylidene}-1-[2-cyclopropyl-1-(2-fluorophenyl)-2-oxoethyl]-4-sulfanylpiperidine hydrochloride] | 85% | 76% | – | –
Cl.O=C(C1CC1)C(c1ccccc1F)N1CCC(S)/C(=C/c2c[nH]nn2)C1 (stereo not drawn) [Example 235, (E)-1-[2-Cyclopropyl-1-(2-fluorophenyl)-2-oxoethyl]-4-sulfanyl-3-{[1(2)H-1,2,3-triazol-4(5)-yl]methylidene}piperidine hydrochloride] | – | – | 77% | 54%
O=C(O)CCn1ncc(/C=C2\CN(C(C(=O)C3CC3)c3ccccc3F)CCC2S)n1 (stereo not drawn) [Example 242, (E)-3-{[2-(Carboxyethyl)-2H-1,2,3-triazol-4-yl]methylidene}-1-[2-cyclopropyl-1-(2-fluorophenyl)-2-oxoethyl]-4-sulfanylpiperidine hydrochloride] | 75% | 82% | – | –
O=C(O)CCn1nnc(/C=C2\CN(C(C(=O)C3CC3)c3ccccc3F)CCC2S)n1 (stereo not drawn) [Example 257, (E)-3-{[2-(2-Carboxyethyl)-2H-tetrazol-5-yl]methylidene}-1-[2-cyclopropyl-1-(2-fluorophenyl)-2-oxoethyl]-4-sulfanylpiperidine hydrochloride] | 87% | 51% | – | –
CONC(=O)Cn1ccc(/C=C2\CN(C(C(=O)C3CC3)c3ccccc3F)CCC2S)n1.Cl (stereo not drawn) [Example 192, (E)-1-[2-Cyclopropyl-1-(2-fluorophenyl)-2-oxoethyl]-3-{[1-(N-methoxycarbamoylmethyl)-1H-pyrazol-3-yl]methylidene}-4-sulfanylpiperidine hydrochloride] | – | – | 84% | 81%
O=C(CCCn1nncc1/C=C1\CN(C(C(=O)C2CC2)c2ccccc2F)CCC1S)NO (stereo not drawn) [Example 262, (E)-1-[2-Cyclopropyl-1-(2-fluorophenyl)-2-oxoethyl]-3-({1-[3-(N-hydroxycarbamoyl)propyl]-1H-1,2,3-triazol-5-yl}methylidene)-4-sulfanylpiperidine hydrochloride] | 71% | 91% | – | –
CCOC(=O)CCn1ccc(/C=C2\CN(C(C(=O)C3CC3)c3ccccc3F)CCC2S)n1 (stereo not drawn) [Example 112, (E)-1-[2-Cyclopropyl-1-(2-fluorophenyl)-2-oxoethyl]-3-({1-[2-(ethoxycarbonyl)ethyl]-1H-pyrazol-3-yl}methylidene)-4-sulfanylpiperidine hydrochloride] | 75% | 91% | – | –
CCOC(=O)Cn1ccc(/C=C2/CN(C(C(=O)C3CC3)c3ccccc3F)CCC2S)n1 (stereo not drawn) [Example 154, (Z)-1-[2-Cyclopropyl-1-(2-fluorophenyl)-2-oxoethyl]-3-{[1-(ethoxycarbonylmethyl)-1H-pyrazol-3-yl]methylidene}-4-sulfanylpiperidine hydrochloride] | – | 79% | – | –
O=C(O)CCCn1cc(/C=C2\CN(C(C(=O)C3CC3)c3ccccc3F)CCC2S)nn1 (stereo not drawn) [Example 143, (E)-3-{[1-(3-Carboxypropyl)-1H-1,2,3-triazol-4-yl]methylidene}-1-[2-cyclopropyl-1-(2-fluorophenyl)-2-oxoethyl]-4-sulfanylpiperidine hydrochloride] | 81% | 69% | – | –
Cl.O=C(O)CCn1cc(/C=C2\CN(C(C(=O)C3CC3)c3ccccc3F)CCC2S)cn1 (stereo not drawn) [Example 249, (E)-3-{[2-(Carboxyethyl)-1H-pyrazol-4-yl]methylidene}-1-[2-cyclopropyl-1-(2-fluorophenyl)-2-oxoethyl]-4-sulfanylpiperidine hydrochloride] | – | – | 81% | 88%

— patent publication US7829580B2, “Cyclic amine derivative having heteroaryl ring” (Sankyo Company, Ltd., priority 2006, dated 2010)
